Data from publication PMC11320734 (ACS Pharmacology & Translational Science, 2024).

Experiments:
mouse CB2R = molecular target: T1, mouse CB2R (Mus musculus, UniProt P47936); assay: cAMP assay in CHO cells; type: cell-based; conditions: mean ± SD
T1 construct: expressed in transfected cells; host or cells: CHO cells

rat CB2R = molecular target: T2, rat CB2R (Rattus norvegicus, UniProt Q9QZN9); assay: cAMP assay in CHO cells; type: cell-based; conditions: mean ± SD
T2 construct: expressed in transfected cells; host or cells: CHO cells

cynomolgus CB2R = cynomolgus CB2R (Macaca fascicularis, UniProt G7NVV5); assay: cAMP assay in CHO cells; type: cell-based; conditions: mean ± SD; read-out: EC50 cAMP assay, monkey CB2R
Microsomal clearance = type: in vitro ADME; conditions: mouse, mouse microsomes; Table 3
Experimental: The hepatocyte clearance assay was performed as previously described.[39] For mice hepatocytes, the suspension cultures were either freshly prepared by liver perfusion or prepared from cryopreserved hepatocyte batches (pooled C57BL6 mouse hepatocytes were purchased from BioreclamationIVT (NY, USA)). For human hepatocytes, commercially available, pooled (5–20 donors), cryopreserved samples from nontransplantable liver tissues were used. For the suspension cultures, Nunc U96 PP-0.5 mL (Nunc Natural, 267245) plates were used, which were incubated in a Thermo Forma incubator from Fischer Scientific (Wohlen, Switzerland) equipped with shakers from Variomag Teleshake (Sterico, Wangen, Switzerland) for maintaining cell dispersion. The cell culture medium was William’s media supplemented with glutamine, antibiotics (100 IU/mL Penicillin-Streptomycin, Gibco), insulin, dexamethasone, and 10% fetal calf serum (FCS). Incubations of a test compound at 1 μM test concentration in suspension cultures of 1 × 10^6 cells mL^–1 (∼1 μg μL^–1 protein concentration) were performed in 96-well plates and shaken at 900 rpm for up to 2 h in a 5% CO2 atmosphere at 37 °C. After 3, 6, 10, 20, 40, 60, and 120 min, a 100 μL cell suspension in each well was quenched with 200 μL methanol containing an internal standard. Samples were then cooled and centrifuged before analysis by LC-MS/MS. […]

[1] = Single-dose pharmacokinetics in male Wistar rats; type: in vivo; conditions: rat, plasma
Experimental: (§1) To characterize the pharmacokinetic behavior of RNB-61, studies in rodents were conducted at the in vivo facility of F. Hoffmann-La Roche Ltd. (Basel, Switzerland). The plasma-concentration time profile was studied in rodents after single-dose RNB-61 administration by oral gavage (p.o. microsuspension excipients 7.5% gelatin/0.62% NaCl) and intravenous bolus injection (i.v. solution, excipients NMP:NaCl (30:70)). Three groups of male Wistar rats (n = 2 per group) were administered RNB-61 either at 1 mg kg^–1 i.v., 3 mg kg^–1 p.o., or 26 mg kg^–1 p.o. Plasma samples were drawn at 0.083, 0.25, 0.5, 1, 2, 4, 8, and 24 postdose in the i.v. group and at 0.25, 0.5, 0.75, 1.5, 3, 5, 8, and 24 h postdose in the p.o. groups. The samples were analyzed for RNB-61 concentration by LC/MS-MS. For the LC/MS-MS analysis, and the samples were prepared by adding 100 uL to 400 uL ACN with ISTD (100 ng/mL Bosantan in ACN/MeOH 1/1), stirring, and centrifuging (4000 rpm, 65’). 100 uL of the supernatant were pipetted and diluted with 400 μL H2O at pH 3. The analytes were separated on a Restek C18 column (5 μm, 1.0 × 3 mm). The mobile phase consisted of water containing 0.1% HCOOH as solvent A and ACN containing 0.1% HCOOH as solvent B. The gradient curve starting with 5% B was changed to 90% B between 0.4 and 0.6 min and further increased to 95% B between 0.6 and 1.2 min. This was maintained until 1.4 min and then reduced and kept at 5% B between 1.45 and 2.0 min. The mass spectrometer was operated in the positive mode. All LC-MS/MS was done using the Agilent RapidFire Analyzer software (version 4.3). The pharmacokinetic parameters were estimated by noncompartmental analysis in the Certara WinNonlin software (version 5.3). A similar study design was run in mice with three groups receiving 2 mg kg^–1 i.v., 4 mg kg^–1 p.o., or 26 mg kg^–1 p.o., and plasma sampling occurring in a composite profile (n = 2 for each time point) up to 7 or 24 h postdose. Male C57/BL6 mice (n = 5 per group) were used to study the influence of P-gp efflux on brain penetration. Two groups of mice were administered RNB-61 by i.v. bolus injection at 1 mg kg^–1 (2 groups). In order to block P-gp activity, an i.v. bolus of 5 mg kg^–1 tariquidar[46] was injected into one group 30 min prior to RNB-61. Plasma was collected at 0.083, 0.25, 0.5, 2, 4, and 7 h postdose in a composite profile. Brain, CSF, and vitreous body were collected at terminal time points 0.5, 2, 4, and 7 h postdose.

[2] = Brain penetration study with/without P-gp inhibitor tariquidar; type: in vivo, male C57/BL6 mice
Experimental: as §1

[3] = RNB-61 1 mg kg^–1 i.v. + tariquidar 5 mg kg^–1 i.v.
[4] = RNB-61 1 mg kg^–1 i.v., no tariquidar

T2 sequence (Q9QZN9 whole entry): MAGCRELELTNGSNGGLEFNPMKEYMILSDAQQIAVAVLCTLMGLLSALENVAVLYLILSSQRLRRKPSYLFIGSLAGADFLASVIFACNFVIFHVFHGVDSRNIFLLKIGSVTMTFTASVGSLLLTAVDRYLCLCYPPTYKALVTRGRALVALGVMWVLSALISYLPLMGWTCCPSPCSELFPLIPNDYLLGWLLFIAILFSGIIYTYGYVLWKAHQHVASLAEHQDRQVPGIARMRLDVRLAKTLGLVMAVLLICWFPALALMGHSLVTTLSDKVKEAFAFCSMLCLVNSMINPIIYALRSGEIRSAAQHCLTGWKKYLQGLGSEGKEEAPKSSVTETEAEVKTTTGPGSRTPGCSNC
T1 sequence (P47936 whole entry): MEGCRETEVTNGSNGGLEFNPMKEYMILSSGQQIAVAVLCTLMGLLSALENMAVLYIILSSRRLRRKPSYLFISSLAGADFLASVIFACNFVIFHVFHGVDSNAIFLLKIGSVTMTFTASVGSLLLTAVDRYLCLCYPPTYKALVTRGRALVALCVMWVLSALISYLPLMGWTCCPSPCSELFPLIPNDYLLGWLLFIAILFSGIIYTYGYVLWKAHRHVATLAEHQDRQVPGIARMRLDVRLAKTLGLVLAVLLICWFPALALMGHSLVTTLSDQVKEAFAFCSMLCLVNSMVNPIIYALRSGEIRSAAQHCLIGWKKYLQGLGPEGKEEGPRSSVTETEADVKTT
cynomolgus CB2R, sequence (G7NVV5 1-360): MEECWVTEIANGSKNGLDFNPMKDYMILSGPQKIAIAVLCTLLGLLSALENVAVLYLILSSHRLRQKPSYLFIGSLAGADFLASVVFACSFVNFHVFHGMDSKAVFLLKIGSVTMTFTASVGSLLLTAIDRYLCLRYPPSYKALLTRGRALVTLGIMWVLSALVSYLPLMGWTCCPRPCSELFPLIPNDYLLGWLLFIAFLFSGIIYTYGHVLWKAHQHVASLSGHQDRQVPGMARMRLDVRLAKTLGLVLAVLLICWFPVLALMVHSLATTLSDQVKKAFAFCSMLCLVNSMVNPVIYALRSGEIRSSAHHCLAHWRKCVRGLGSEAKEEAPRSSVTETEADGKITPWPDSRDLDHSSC

## Cn1c(C(C)(C)C)cc(=NC(=O)c2cc(C(F)(F)F)ccc2OCC(C)(C)O)n1CC1CCC1 [RNB-61]
Mouse CB2R
  EC50: 250 ± 130 pM
Rat CB2R
  EC50: 130 ± 70 pM
Cynomolgus CB2R
  EC50: 700 ± 30 pM
Microsomal clearance
  microsomal CLint: ≤ 10 µL/min/mg
[1]; iv, 1 mg kg^–1 i.v.
  AUC(0-inf): 5170 ng·h/mL
  Tmax: 0.083 h
  clearance: 3.5 mL/min/kg
  half-life: 6 h
[1]; iv, 1 mg kg^–1 i.v., read-out: Cmax
  Cmax: 619 ng/mL
[1]; iv, 1 mg kg^–1 i.v., read-out: Cmax (molar)
  Cmax: 1280 nM
[1]; iv, 1 mg kg^–1 i.v., read-out: Vss
  Vd: 1.6 L/kg
[1]; po, 3 mg kg^–1 p.o.
  AUC(0-inf): 7410 ng·h/mL
  Tmax: 5.5 h
  bioavailability: 48%
  half-life: 7.1 h
[1]; po, 3 mg kg^–1 p.o., read-out: Cmax
  Cmax: 446 ng/mL
[1]; po, 3 mg kg^–1 p.o., read-out: Cmax (molar)
  Cmax: 926 nM
[1]; po, 26 mg kg^–1 p.o.
  AUC(0-inf): 117000 ng·h/mL
  Tmax: 3 h
  bioavailability: 87%
  half-life: 49 h
[1]; po, 26 mg kg^–1 p.o., read-out: Cmax
  Cmax: 1710 ng/mL
[1]; po, 26 mg kg^–1 p.o., read-out: Cmax (molar)
  Cmax: 3500 nM
[2]; 1 mg kg^–1 i.v., no tariquidar
  AUClast lower in the brain compared to plasma: > 10 fold
  peak brain concentration lower compared to plasma level: > 20 fold
[2]; [3]
  brain AUCinf: 4386 ng·h/mL
  brain AUClast: 1877 ng·h/mL
  brain Cmax: 342 ng/mL
[2]; [4]
  brain AUCinf: 375 ng·h/mL
  brain AUClast: 215 ng·h/mL
  brain Cmax: 41.3 ng/mL
[2]; male, C57/BL6, mouse, brain, iv, RNB-61 1 mg kg^–1 i.v., no tariquidar, read-out: brain T1/2 (converted)
  half-life: 5.98 h
[2]; male, C57/BL6, mouse, brain, iv, RNB-61 1 mg kg^–1 i.v., no tariquidar, read-out: brain Tmax
  Tmax: 0.58 h
[2]; male, C57/BL6, mouse, iv, ratio of AUClast in brain and plasma, 1 mg kg^–1 i.v., no tariquidar, read-out: brain-plasma partition coefficient Kp
  Kp: 0.088
[2]; male, C57/BL6, mouse, plasma, iv, RNB-61 1 mg kg^–1 i.v., no tariquidar
  Cmax: 972 ng/mL
[2]; male, C57/BL6, mouse, plasma, iv, RNB-61 1 mg kg^–1 i.v., no tariquidar, read-out: plasma AUCinf
  AUC(0-inf): 3320 ng·h/mL
[2]; male, C57/BL6, mouse, plasma, iv, RNB-61 1 mg kg^–1 i.v., no tariquidar, read-out: plasma AUClast
  AUC(0-t): 2430 ng·h/mL
[2]; male, C57/BL6, mouse, plasma, iv, RNB-61 1 mg kg^–1 i.v., no tariquidar, read-out: plasma CL (converted)
  clearance: 5.02 mL/min/kg
[2]; male, C57/BL6, mouse, plasma, iv, RNB-61 1 mg kg^–1 i.v., no tariquidar, read-out: plasma T1/2 (converted)
  half-life: 4 h
[2]; male, C57/BL6, mouse, plasma, iv, RNB-61 1 mg kg^–1 i.v., no tariquidar, read-out: plasma Tmax
  Tmax: 0.25 h
[2]; tariquidar 5 mg kg^–1
  brain Cmax and AUClast higher with tariquidar than RNB-61 alone: ~10 fold
